Laboratory results: patent EP0519427A2, “N-substituted-3-iodopropiolamide, production and use thereof” (priority 1991, dated 1992)

Columns and labels:
Format in all cases: cell-based
[1] = tested on: Aspergillus Niger (IFO 6341), Penicillium funiculosum (IFO 6345), Rhizopus javanicus (IFO 6354), Aureobasidium pullulans (IFO 6353), Gliocladium virens (IFO …); experiment: Fungicide activity for wood fungicide, sum of average ratings and damage value over the five fungi
Description: (§1) This test was conducted according to Specification No.2 of Japan Wood Preserving Association, enacted in 1979 and titled "Test methods of fungicide activity for wood fungicide".
(§2) • ① Aspergillus niger van Tieghem IFO 6341 = ATCC 6275 • ② Penicillium funiculosum Thom (formerly : Penicillium luteum Zukal) IFO 6345 = ATCC 9644 • ③ Rhizopus javanicus Takeda (formerly : Rhizopus nigricans Ehrenberg S.N. 32) IFO 6354 • ④ Aureobasidium pullulans (de Bary) Arnaud IFO 6353 = IAM (H. Iizuka, F-24) • ⑤ Gliocladium virens Miller, Gidden & Fosteb IFO 6355 = ATCC 9645 (formerly : Trichoderma viride, T.I.)
(§3) The fungi ① , ② , ③ and ⑤ are classified as fungi imperfecti, and the fungus ④ as blue stain fungus.
(§4) The Culture medium comprised the potato-sap agar culture medium (specified in the Japan Industrial Standard (JIS) Z 2911- 1960) of 50 ml, put in the conical flask of 100 ml, sterilized by steam at 1.4-1.6 kgf/cm² .G (137.2-156.8 KPa) for 30 minutes.
(§5) The fungi to be used were inoculated into the culture medium specified in the previous section and were cultured at 26 ± 2 °C under the relative humidity of 70-80 % for two weeks.
(§6) The potato sap of 50 ml, sterilized, cooled to room temperature and to which dioctyl sodium sulfosuccinate, a wetting agent, was added so as to become 0.005 %, was dropped to the fully breeding fungi layer, and was agitated with a platinum spatula in such a way that the spore was torn off. The resulting liquid filtered by sterilized gauze was the spore suspension.
(§7) 3-5-1 A Petri dish measured 90-100 mm in diameter and 20 mm in height.
(§8) 3-5-2 Agar liquid (which has no nutrients) of 2 % sterilized by steam was dropped onto the Petri dish sterilized by dry heat, and then was solidified.
(§9) 3-5-3 Three mm diameter sterilized glass bars or plastic nets made of polypropylene, etc. were placed to prevent the test specimens from touching with agar directly.
(§10) 3-6-1 The type of trees for wood specimens was beech. The cross section was of grain face, and the dimension was 20 mm wide 3 mm thick and 50 mm long.
(§11) 3-6-2 Wood specimens were supplied with nutrients in such a way that they were dipped into the potato-sap (the one in the section 3-2, but agar was not added) for 3 minutes.
(§12) 3-6-3 Nutrient-supplied wood specimens, after drying at 60 °C, were used for testing immediately. They were temporarily stored at 0 °C, but they were served to tests as soon as possible.
(§13) The test specimens were of two types, treated and untreated speciments. The treated specimens referred to the one treated with fungicide. The untreated specimens were of two types, the one really untreated and the other treated with solvent only.
(§14) 3-7-2-1 Nutrients-supplied wood specimens were dried at 60 ± 2 °C, and then their weights (W₀) were measured. Test specimens of 10-20 pieces were piled up in a one liter beaker in such a way that two specimens constant space apart from each other were alternately put on the other two specimens also constant space apart from each other. On the top of the two specimens, a weight was placed. Through the test specimens thus arranged, the fungicide solution was introduced. The level of the fungicide solution was one centimeter above the top specimens. The test specimens were dipped for three minutes after the fungicide solution introduction.
(§15) After finishing dipping, the test specimens were wiped softly, and then the weights (W₁) were measured immediately. As control experiment, the same procedure as the above was done using solvent without fungicide.
(§16) 3-7-2-2 The amounts of solution pick-up and fungicide pick-up were calculated with the following equations: The amount of solution absorption: RL = W₁ - W₀ [formula] The amount of fungicide absorption: Rc = RL × fungicide concentration [formula] 3-7-2-3 Wood specimens treated were placed without contacting each other, then were air-dried for two days, and then served as the treated test specimens. […]

[2] = tested on: Coriolus versicolor(L. ex Fr.) Quélet, FFPRI 1030; experiment: Preserving activity for wood preservatives (weight loss of treated wood); details: beech sapwood specimens, 110 ± 10 g/m² preservative applied (0.5% xylene solution per table note), eight weeks at 26 ± 2 °C; lower = higher preserving activity
Description: (§17) This test was conducted according to Specification No.1 of Japan Wood Preserving Association, enacted in 1979, amended in 1989 and titled "Test methods of preserving activity for wood preservatives used in the coating, spraying and dipping treatment".
(§18) • ① Tyromyces palustris (Ber. et Curt.) Murr., FFPRI 0507 --"Ouzuratake" • ② Coriolus versicolor(L. ex Fr.) Quélet, FFPRI 1030 --"Kawaratake"
(§19) These two fungi are classified as wood rot fungi.
(§20) Culture media comprised culture jars (cylindrical jars of bottom diameter 8-9 cm, opening diameter 6-7 cm and height 15-18 cm), in which quartz sand of 250 g (the size of which corresponds to 20-30 mesh) was put first, and then the solution of 70 ml containing 2.0 % malt extracts and 1.0 % peptone was introduced, over which chips of the beech or other broadleaf tree were spread at about 2 mm thickness, and then sterilized at 120 °C for 30 minutes in the wet heated sterilizer.
(§21) Fungi were cultured at 26 ± 2 °C with shaking using the culture solution of 2.0 % malt extracts and 1.0 % peptone. After sufficient breeding was obtained, the fungi solution of about 3 ml was spread all over the culture medium, and then the fungi were cultured at 26 ± 2 °C with the relative humidity of over 70 %. After 10-15 days when the fungi layer sufficiently covered the culture medium, the fungi were served for the tests.
(§22) Wood specimens were the sapwood of intact cedar and beech, the dimension of which was 5 mm thick, 20 mm wide and 40 mm long. The grain face was of 20 mm width and 40 mm length. The side faces were treated with cold-setting epoxy resin.
(§23) The antimicrobial operation was performed with specifying types of fungi for corresponding type of trees. The combinations were as follows: Cedar----Tyromyces palustris ("Ouzuratake") Beech----Coriolus versicolor ("Kawaratake")
(§24) The test specimens were of two types, treated and untreated specimens, respectively.
(§25) The treated specimens referred to the wood specimens coated by brushing, spraying or dipping with wood preservatives. The amount of applied preservatives was 110 ± 10 g/m².
(§26) The amount of applied preservatives for each test specimen was calculated by the following equation:
(§27) The amount of applied preservatives (g/m²)=(W₁-W₂)/A wherein W₁ : weight of the test specimen after absorption(g), W₂ : weight of the test specimen before absorption(g) and A: surface area of test specimen except both butt surfaces (m²)
(§28) 2-7-1 The test specimens prepared in the previous section were dried at 60 ± 2 °C with a recirculating dryer for 48 hours, and were allowed to stand in a desiccator for about 30 minutes, and then the weight (W₃) was measured to an accuracy of 0.01 g.
(§29) 2-7-2 Three of each treated and untreated specimens were assembled in the Teflon casing. After sterilizing, the two assemblies were put on their 40 × 5 mm face on the fungi layer in the separate jar. They were kept at 26 ± 2 °C under the relative humidity of over 70 % for eight weeks.
(§30) 2-7-3 After the eight weeks had elapsed, the test specimens were taken out, and mycelia and other attachments of them were removed neatly. After air-drying for 24 hours, the test specimens were dried at 60 ± 2 °C in a recirculating dryer for 48 hours, and were allowed to stand in a desiccator for about 30 minutes, and then the weight (W₄) was measured to an accuracy of 0.01 g.
(§31) The test results were presented by the ratio of average weight loss of test specimens due to antimicrobial operation. The standard deviation and coefficient of variation were also determined. The ratio of weight loss for each test specimen was calculated by the following equation, and its average was also determined: The ratio of weight loss(%) = (W₃ - W₄) / W₃ × 100 [formula] . Lower value of the ratio of weight loss corresponds to higher wood preserving activity. […]

[3] = tested on: Tyromyces palustris (Ber. et Curt.) Murr., FFPRI 0507; experiment: as above; details: cedar sapwood specimens, 110 ± 10 g/m² preservative applied (0.5% xylene solution per table note), eight weeks at 26 ± 2 °C; lower = higher preserving activity
Description: as §17, §18, §19, §20, §21, §22, §23, §24, §25, §26, §27, §28, §29, §30, §31

[4] = tested on: Gliocladium virens Miller, Gidden & Fosteb IFO 6355; experiment: Fungicide activity for wood fungicide (rating of fungi growth on treated wood); details: beech specimens dipped 3 min in fungicide solution, 4 weeks culture; rating 0 (no growth) to 3; mean of 6 specimens
Description: as §1, §2, §3, §4, §5, §6, §7, §8, §9, §10, §11, §12, §13, §14, §15, §16

[5] = tested on: Penicillium funiculosum Thom IFO 6345; experiment: as above; details: beech specimens dipped 3 min in fungicide solution, 4 weeks culture; rating 0 (no growth) to 3; mean of 6 specimens
Description: as §1, §2, §3, §4, §5, §6, §7, §8, §9, §10, §11, §12, §13, §14, §15, §16

[6] = tested on: Aspergillus niger van Tieghem IFO 6341; experiment: as above; details: beech specimens dipped 3 min in fungicide solution, 4 weeks culture; rating 0 (no growth) to 3; mean of 6 specimens
Description: as §1, §2, §3, §4, §5, §6, §7, §8, §9, §10, §11, §12, §13, §14, §15, §16

[7] = tested on: Rhizopus javanicus Takeda IFO 6354; experiment: as above; details: beech specimens dipped 3 min in fungicide solution, 4 weeks culture; rating 0 (no growth) to 3; mean of 6 specimens
Description: as §1, §2, §3, §4, §5, §6, §7, §8, §9, §10, §11, §12, §13, §14, §15, §16

[8] = tested on: Aureobasidium pullulans (de Bary) Arnaud IFO 6353; experiment: as above; details: beech specimens dipped 3 min in fungicide solution, 4 weeks culture; rating 0 (no growth) to 3; mean of 6 specimens
Description: as §1, §2, §3, §4, §5, §6, §7, §8, §9, §10, §11, §12, §13, §14, §15, §16

## CCCCNC(=O)OCC#CI [R, I-C≡CCH₂O-CO-NH(CH₂)₃CH₃, reference compound]
[1]; D = S₁ / S₀ × 100, untreated 100.0, lower = higher fungicide activity
  damage value: 13.3
[1]; S = A₁ + A₂ + A₃ + A₄ + A₅, untreated 15.0
  Sum (of average rating values A₁ to A₅): 2.0
[2]
  Ratio of weight loss (%), C. versicolor: 6.4%
[3]
  Ratio of weight loss (%), T. palustris: 1.3%
[4]
  Average rating value, A₅ : Gliocladium virens (IFO 6355): 0.0
[5]
  Average rating value, A₂ : Penicillium funiculosum (IFO 6345): 0.0
[6]
  Average rating value, A₁ : Aspergillus Niger (IFO 6341): 0.0
[7]
  Average rating value, A₃ : Rhizopus javanicus (IFO 6354): 2.0
[8]
  Average rating value, A₄ : Aureobasidium pullulans (IFO 6353): 0.0
